Laboratory results: ChEMBL document CHEMBL4411288, “Design, synthesis and biological evaluation of novel 7-amino-[1,2,4]triazolo[4,3-f]pteridinone, and 7-aminotetrazolo[1,5-f]pteridinone derivative as potent antitumor agents” (Eur J Med Chem, 2019)
Active and inactive are the calls of the source. The rule behind the calls is not given here.

Tests used:
HCT-116 = assay: Cytotoxicity against human HCT116 cells assessed as reduction in cell viability after 72 hrs by MTT assay; assay type: functional, cell-based; conditions: HCT-116, 72 h
A549 [1] = assay: Cytotoxicity against human A549 cells assessed as reduction in cell viability after 72 hrs by MTT assay; assay type: functional, cell-based; conditions: A549, 72 h
MCF7 = assay: cells; conditions: Homo sapiens, MCF7, 72 h
Description: Cytotoxicity against human MCF7 cells assessed as reduction in cell viability after 72 hrs by MTT assay

PC-3 = assay: Cytotoxicity against human PC3 cells assessed as reduction in cell viability after 72 hrs by MTT assay; assay type: functional, cell-based; conditions: PC-3, 72 h
MDA-MB-231 = assay: cells; conditions: Homo sapiens, MDA-MB-231, 72 h
Description: Cytotoxicity against human MDA-MB-231 cells assessed as reduction in cell viability after 72 hrs by MTT assay

[2] = molecular target: Serine/threonine-protein kinase PLK1 (Homo sapiens) (UniProt P53350); assay: Inhibition of recombinant human N-terminal His6-tagged PLK1 expressed in baculovirus infected Sf21 insect cells at 1 uM using FAM-labelled peptide as substrate preincubated for 10 mins followed by substrate addition measured after 1 hr relative to control
A549 [3] = assay: Antimigratory activity in human A549 cells assessed as wound healing at 0.2 uM after 12 hrs by fluorescence microscopic method (reference value: 26.2%); assay type: functional
A549 [4] = assay: Cell cycle arrest in human A549 cells assessed as accumulation at G1 phase at 5 uM after 24 hrs by propidium iodide staining based flow cytometric analysis (reference value: 63.34%); assay type: functional
A549 [5] = assay: Cell cycle arrest in human A549 cells assessed as accumulation at G1 phase at 1 uM after 24 hrs by propidium iodide staining based flow cytometric analysis (reference value: 63.34%); assay type: functional
A549 [6] = assay: Antimigratory activity in human A549 cells assessed as wound healing at 1 uM after 36 hrs by fluorescence microscopic method (reference value: 100%); assay type: functional
A549 [7] = assay: Cell cycle arrest in human A549 cells assessed as accumulation at S phase at 5 uM after 24 hrs by propidium iodide staining based flow cytometric analysis (reference value: 29.93%); assay type: functional
A549 [8] = assay: Induction of apoptosis in human A549 cells assessed as late apoptotic cells at 1 uM after 24 hrs by acridine orange/ethidium bromide staining-based fluorescence microscopic method; assay type: functional, cell-based
A549 [9] = assay: Antimigratory activity in human A549 cells assessed as wound healing at 1 uM after 12 hrs by fluorescence microscopic method (reference value: 26.2%); assay type: functional
A549 [10] = assay: Cell cycle arrest in human A549 cells assessed as accumulation at S phase at 1 uM after 24 hrs by propidium iodide staining based flow cytometric analysis (reference value: 29.93%); assay type: functional
A549 [11] = assay: Cell cycle arrest in human A549 cells assessed as accumulation at G2 phase at 5 uM after 24 hrs by propidium iodide staining based flow cytometric analysis (reference value: 6.73%); assay type: functional
A549 [12] = assay: Antimigratory activity in human A549 cells assessed as inhibition of wound healing up to 36 hrs by fluorescence microscopic method; assay type: functional, cell-based
A549 [13] = assay: Antimigratory activity in human A549 cells assessed as wound healing at 1 uM after 24 hrs by fluorescence microscopic method (reference value: 58.5%); assay type: functional
A549 [14] = assay: Cell cycle arrest in human A549 cells assessed as accumulation at G2 phase at 0.2 uM after 24 hrs by propidium iodide staining based flow cytometric analysis (reference value: 6.73%); assay type: functional
A549 [15] = assay: Cell cycle arrest in human A549 cells assessed as accumulation at G2 phase at 1 uM after 24 hrs by propidium iodide staining based flow cytometric analysis (reference value: 6.73%); assay type: functional
A549 [16] = assay: Induction of apoptosis in human A549 cells assessed as late apoptotic cells at 5 uM after 24 hrs by acridine orange/ethidium bromide staining-based fluorescence microscopic method; assay type: functional, cell-based
A549 [17] = assay: Antimigratory activity in human A549 cells assessed as wound healing at 0.2 uM after 36 hrs by fluorescence microscopic method (reference value: 100%); assay type: functional
A549 [18] = assay: Cell cycle arrest in human A549 cells assessed as accumulation at G1 phase at 0.2 uM after 24 hrs by propidium iodide staining based flow cytometric analysis (reference value: 63.34%); assay type: functional
A549 [19] = assay: Cell cycle arrest in human A549 cells assessed as accumulation at S phase at 0.2 uM after 24 hrs by propidium iodide staining based flow cytometric analysis (reference value: 29.93%); assay type: functional
A549 [20] = assay: Antimigratory activity in human A549 cells assessed as wound healing at 0.2 uM after 24 hrs by fluorescence microscopic method (reference value: 58.5%); assay type: functional

Chain of Serine/threonine-protein kinase PLK1 (Homo sapiens) (P53350 whole entry): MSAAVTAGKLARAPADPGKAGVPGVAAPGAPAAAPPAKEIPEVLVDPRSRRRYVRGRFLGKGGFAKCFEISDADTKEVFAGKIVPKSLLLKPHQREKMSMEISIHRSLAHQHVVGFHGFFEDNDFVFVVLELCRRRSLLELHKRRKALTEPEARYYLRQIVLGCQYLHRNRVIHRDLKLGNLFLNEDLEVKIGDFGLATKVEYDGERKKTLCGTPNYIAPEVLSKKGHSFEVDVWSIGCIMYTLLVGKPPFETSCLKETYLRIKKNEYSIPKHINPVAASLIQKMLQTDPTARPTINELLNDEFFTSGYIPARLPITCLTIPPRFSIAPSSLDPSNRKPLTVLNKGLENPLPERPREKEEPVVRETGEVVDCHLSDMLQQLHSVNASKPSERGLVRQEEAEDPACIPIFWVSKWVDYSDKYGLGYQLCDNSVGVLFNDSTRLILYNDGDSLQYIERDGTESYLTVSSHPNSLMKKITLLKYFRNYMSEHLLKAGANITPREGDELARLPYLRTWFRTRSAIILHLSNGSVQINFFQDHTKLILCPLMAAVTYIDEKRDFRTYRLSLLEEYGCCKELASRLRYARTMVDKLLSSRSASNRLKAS

Row | SMILES | IC50 (MCF7) | IC50 (MDA-MB-231) | inhibition [2] | IC50 (HCT-116) | IC50 (A549 [1]) | IC50 (PC-3) | further results
1 | CCN1CCN(c2ccc(Nc3ncc4c(n3)n(C3CCCC3)c(=O)c3nncn34)cc2)CC1 | 980 nM | > 50000 nM | 27.4% | 7500 nM | 1070 nM | 3480 nM | –
2 | Cc1nnc2c(=O)n(C3CCCC3)c3nc(Nc4ccc(N5CCN(C6CCCC6)CC5)cc4)ncc3n12 | > 50000 nM | 9120 nM | 31.6% | > 50000 nM | 11400 nM | > 50000 nM | –
3 | CN1CCN(c2ccc(Nc3ncc4c(n3)n(C3CCCC3)c(=O)c3nnnn34)cc2)CC1 | > 50000 nM | 15800 nM | 19.3% | 19100 nM | 1250 nM | 3800 nM | –
4 | Cc1nnc2c(=O)n(C3CCCC3)c3nc(Nc4ccc(N5CCN(C)CC5)cc4)ncc3n12 | 1050 nM | 610 nM | 26.1% | 72800 nM | 1920 nM | 7610 nM | –
5 | CN1CCN(c2ccc(Nc3ncc4c(n3)n(C3CCCC3)c(=O)c3nncn34)cc2)CC1 | > 50000 nM | > 50000 nM | 44.2% | 8000 nM | 6960 nM | 26500 nM | –

These reach a lower IC50 (MCF7). Values come first.

Row | IC50 (MCF7) | IC50 (MDA-MB-231) | inhibition [2] | SMILES | IC50 (HCT-116) | IC50 (A549 [1]) | IC50 (PC-3) | further results
6 | 750 nM | 3350 nM | 28.2% | Cc1nnc2c(=O)n(C3CCCC3)c3nc(Nc4ccc(N5CCN(CCO)CC5)cc4)ncc3n12 | 7610 nM | 5460 nM | 8440 nM | –
7 | 510 nM | 2250 nM | 44.7% | CCN1CCN(c2ccc(Nc3ncc4c(n3)n(C3CCCC3)c(=O)c3nnc(C)n34)cc2)CC1 | 9610 nM | 680 nM | 5000 nM | –
8 | 500 nM | 1600 nM | 77.9% | CC1CN(c2ccc(Nc3ncc4c(n3)n(C3CCCC3)c(=O)c3nnnn34)cc2)CC(C)N1 (stereo unspecified) | 600 nM | 440 nM | 1000 nM | Activity (A549 [8]): Active; Activity (A549 [16]): Active
9 | 410 nM | 4800 nM | 72.1% | CC1CN(c2ccc(Nc3ncc4c(n3)n(C3CCCC3)c(=O)c3nncn34)cc2)CC(C)N1 (stereo unspecified) | 4400 nM | 890 nM | 3260 nM | –
10 | 300 nM | 700 nM | 86.4% | Cc1nnc2c(=O)n(C3CCCC3)c3nc(Nc4ccc(N5CC(C)NC(C)C5)cc4)ncc3n12 (stereo unspecified) | 300 nM | 160 nM | 510 nM | Activity (A549 [3]): 25.1%; Activity (A549 [4]): 82.32%; Activity (A549 [5]): 79.82%; Activity (A549 [6]): 43.1%; Activity (A549 [7]): 13.37%; Activity (A549 [8]): Active; Activity (A549 [9]): 24.4%; Activity (A549 [10]): 14.54%; Activity (A549 [11]): 4.32%; inhibition (A549 [12]): Dose-dependent effect; Activity (A549 [13]): 27.8%; Activity (A549 [14]): 4.55%; Activity (A549 [15]): 5.64%; Activity (A549 [16]): Active; Activity (A549 [17]): 51.4%; Activity (A549 [18]): 74.99%; Activity (A549 [19]): 20.46%; Activity (A549 [20]): 33.7%
11 | 90 nM | 110 nM | 97.7% | CC[C@@H]1C(=O)N(C)c2cnc(Nc3ccc(C(=O)N[C@H]4CC[C@H](N5CCN(CC6CC6)CC5)CC4)cc3OC)nc2N1C(C)C [VOLASERTIB] | 110 nM | 80 nM | 90 nM | –
